According to article PMC5923123, “In Vitro and In Vivo Efficacy of a Novel and Long-Acting Fungicidal Azole, PC1244, on Aspergillus fumigatus Infection” (Antimicrobial Agents and Chemotherapy, 2018):
In brackets after ≈: the same amount, converted by molar mass. Several values for one entry are separate records, joined by “and”; a condition that tells them apart may be missing. Equal values may be shown once. Read-outs that look alike come from different tables or passages of the source.

What was measured:
[1] = system: Gibberella zeae(Fusarium graminearum) (ATCC 16106); assay: microbe, parasite or virus in culture; format: cell-based; settings: ATCC16106
[2] = system: Aspergillus flavus (ATCC 204304); assay: CLSI MIC; format: cell-based; settings: ATCC204304
[3] = system: A. fumigatus hyphae (NCPF2010); assay: Persistence of action on A. fumigatus hyphae (resazurin microtiter assay); format: cell-based, Aspergillus fumigatus; settings: Aspergillus fumigatus, NCPF2010
Method: The duration of action of test agents within the hyphae of A. fumigatus has been determined using a resazurin-based microtiter assay ([28]).
The persistence of action of the test agents against A. fumigatus hyphae (NCPF2010) was determined as previously reported ([28]). […] The plates were incubated for exactly 20 min at 35°C in 5% CO2. After the incubation time had elapsed, all wells on the designated washout plate were aspirated and growth medium (100 μl/well) was added across the plate. […] Resazurin (0.04% diluted in growth medium) was added to all wells of both the nonwashout and washout plates (5 μl/well) to give a final concentration of 0.002% resazurin. The plates were incubated at 35°C in 5% CO2 for 16 h. Subsequently, the fluorescence in each well was measured at an excitation λ of 545 nm and an emission λ of 600 nm using a multiscanner (Clariostar; BMG, Buckinghamshire, UK). […] This study was conducted in quadruplicate in three independent experiments.

[4] = system: Aspergillus flavus (AFL8, NRRC3357); assay: EUCAST MIC; format: cell-based
A. fumigatus (NCPF2010) [5] = assay: Fungicidal activity by subculture on agar (CFU-MFC); settings: Aspergillus fumigatus, NCPF2010, 48 h, read-out: CFU-MFC
Method: After the MIC for each compound was recorded, fungicidal activity was determined as previously described ([35]). Briefly, medium from each well (100 μl/well) was removed after pipetting up and down five times and subcultured onto 4% Sabouraud dextrose agar plates. The plates were incubated (35°C with ambient air) for 48 h, and the numbers of CFU were counted for each compound concentration. The minimum fungicidal concentration (MFC) was determined as the lowest compound concentration yielding 3 colonies or less.

[6] = system: Aspergillus terreus (AT49, AT7130); assay: EUCAST MIC; format: cell-based
[7] = system: Trichophyton rubrum (ATCC 10218); assay: CLSI MIC; format: cell-based; settings: ATCC10218, 1 strain
A. fumigatus AF72 = assay: EUCAST broth microdilution growth inhibition (OD 530 nm, 384-well); format: cell-based; settings: Aspergillus fumigatus, strain AF72 (ITC-resistant), 48 h
Method: (§1) The antifungal activities of the test compounds against A. fumigatus strains (itraconazole [ITC]-susceptible strains NCPF2010, AF294, and AF293; ITC-resistant strains AF72 and AF91) were calculated from growth curves generated by spectrophotometric analysis and compared to the activities against positive and negative controls.

A. fumigatus AF294 = assay: as above; format: cell-based; settings: Aspergillus fumigatus, strain AF294 (ITC-susceptible), 48 h
Method: as §1

A. fumigatus AF91 = assay: as above; format: cell-based; settings: Aspergillus fumigatus, strain AF91 (ITC-resistant), 48 h
Method: as §1

A. fumigatus AF293 = assay: as above; format: cell-based; settings: Aspergillus fumigatus, strain AF293 (ITC-susceptible), 48 h
Method: as §1

A. fumigatus NCPF2010 = assay: as above; format: cell-based; settings: Aspergillus fumigatus, strain NCPF2010 (ITC-susceptible), 48 h, range tested 0.002 to 1 μg/ml
Method: as §1

[8] = system: Aureobasidium pullulans (ATCC 348); assay: CLSI MIC; format: cell-based; settings: ATCC348, 1 strain
[9] = system: Rhizomucor pusillus (ATCC 16458); assay: CLSI MIC; format: cell-based; settings: ATCC16458, 1 strain
[10] = system: Rhizopus oryzae(ATCC 11145); assay: CLSI MIC; format: cell-based; settings: Rhizopus arrhizus, ATCC11145, 1 strain
[11] = system: Cladosporium argillaceum (ATCC 38013); assay: CLSI MIC; format: cell-based; settings: Rhizocladosporium argillaceum, ATCC38013, 1 strain
[12] = system: BEAS2B cells infected with A. fumigatus; assay: Persistence of action in bronchial epithelial cells (galactomannan in supernatant); format: cell-based, Aspergillus fumigatus; settings: for IC50: Aspergillus fumigatus, BEAS-2B, GM readout
Method: In a second system, the persistence of the action of the same three agents on A. fumigatus-infected bronchial epithelial cells was quantified using galactomannan (GM) production in the culture supernatant as an index of fungal growth. BEAS2B cells were infected with A. fumigatus, and the effects of a 24-h washout period (medium change) prior to infection were examined.
The persistence of action of the test agents was evaluated in immortalized bronchial epithelial cells (BEAS2B cells) as previously reported ([28]). […] The plate was incubated for exactly 1 h at 37°C in 5% CO2. After the incubation time had elapsed, all wells on the washout plate were aspirated and growth medium (100 μl/well) was added across the plate. […] The plate was incubated for exactly 1 h at 37°C in 5% CO2, after which A. fumigatus conidia were added across both plates at a final concentration of 1 × 10^3/well. […] This study was conducted in triplicate in three independent experiments.

[13] = system: ergosterol production in A. fumigatus (NCPF2010); assay: A. fumigatus cell-based ergosterol assay; settings: Aspergillus fumigatus, NCPF2010, 24 h, read-out: IC50, inhibition of ergosterol production
Method: CYP51 enzyme-inhibitory activity was also measured in a cell-based assay, as described previously ([28]). In this plate-based ergosterol quantification experiment, oxidation of ergosterol by cholesterol oxidase was determined by observing the conversion of the weakly fluorescent resazurin to the highly fluorescent resorufin and was normalized using crystal violet staining (indicating cell number).
After incubation for 24 h at 35°C, the medium was removed from all wells and replaced with reaction buffer (catalog number A12216; Amplex red cholesterol assay kit; Thermo Fisher) and Amplex red solution. The plates were incubated for 30 min at 37°C with protection from light, after which the fluorescence was quantified using a spectrophotometer. The medium was removed from all wells and replaced with crystal violet solution (1%, vol/vol), and the plates were incubated at room temperature on a shaker for 30 min. The plates were washed three times with phosphate-buffered saline (PBS), and sodium dodecyl sulfate solution (0.1%, vol/vol) was added across the plate to lyse the cells. After incubation at room temperature for 1 h, the absorbance (OD) at 590 nm was measured using a spectrophotometer.

A. fumigatus (NCPF2010) [14] = assay: Fungicidal activity by XTT colorimetric method (XTT-MFC); settings: Aspergillus fumigatus
Method: In addition, the fungicidal effect of each compound was determined using 2,3-bis-(2-methoxy-4-nitro-5-sulfophenyl)-2H-tetrazolium-5-carboxanilide salt (XTT)-based quantitative colorimetric analysis (XTT-MFC).
After the removal of medium for culture-based testing of the number of CFU, the contents of all wells were carefully aspirated and warm PBS (200 μl/well) was added. After gentle agitation, the contents of all wells were aspirated and fresh medium was added (200 μl/well). The plates were incubated (35°C with ambient air) for 24 h. […] The plates were incubated (35°C with ambient air) for 2 h, after which the plates were agitated gently for 2 min. The optical density (OD) of each well at 450 nm and 620 nm was measured using a multiscanner (Clariostar; BMG, Buckinghamshire, UK).

[15] = system: Penicillium citrinum (ATCC 9849); assay: CLSI MIC; format: cell-based; settings: ATCC9849, 1 strain
[16] = system: 96 clinically isolated A. fumigatus strains; assay: EUCAST MIC against clinical isolates (visual); format: cell-based, Aspergillus fumigatus; settings: 96 clinical isolates, visual
Source text: The antifungal activity of PC1244 was further evaluated against 96 clinical isolates (obtained from Saint Louis Hospital, Paris, France [50 isolates], and the North West England Mycology Reference Centre, Manchester, UK [46 isolates]). […] .

[17] = system: Cryptococcus neoformans (ATCC 24067); assay: CLSI MIC; format: cell-based; settings: ATCC24067

Structure (SMILES): C[C@@H](c1ncncc1F)[C@](O)(Cn1cncn1)c1ccc(F)cc1F [Voriconazole, voriconazole]
- MIC [1]: > 8 µg/mL
- MIC [2]: 2 µg/mL (≈ 5.73 µM)
- IC50 ([3]; 20 min contact, washout, 16 h incubation, read-out: Hyphae IC50 Washout): > 1 µg/mL
- IC50 ([3]; continuous contact 16 h, read-out: Hyphae IC50 No washout): 0.011 µg/mL (≈ 0.0315 µM)
- MIC [4]: 0.63 µg/mL (≈ 1.8 µM)
- MFC (A. fumigatus (NCPF2010) [5]): 16 µg/mL (≈ 45.8 µM)
- MIC [6]: 1 µg/mL (≈ 2.86 µM)
- MIC [7]: 0.063 µg/mL (≈ 0.18 µM)
- IC50 (A. fumigatus AF72): 0.025 µg/mL (≈ 0.0716 µM)
- IC90 (A. fumigatus AF72): 0.066 µg/mL (≈ 0.189 µM)
- IC50 (A. fumigatus AF294): 0.083 µg/mL (≈ 0.238 µM)
- IC90 (A. fumigatus AF294): 0.27 µg/mL (≈ 0.773 µM)
- IC50 (A. fumigatus AF91): 0.14 µg/mL (≈ 0.401 µM)
- IC90 (A. fumigatus AF91): 0.28 µg/mL (≈ 0.802 µM)
- IC50 (A. fumigatus AF293): 0.25 µg/mL (≈ 0.716 µM)
- IC90 (A. fumigatus AF293): 0.74 µg/mL (≈ 2.12 µM)
- IC50 (A. fumigatus NCPF2010): 0.15 µg/mL (≈ 0.429 µM)
- IC90 (A. fumigatus NCPF2010): 0.21 µg/mL (≈ 0.601 µM)
- MIC [8]: > 8 µg/mL
- MIC [9]: > 8 µg/mL
- MIC [10]: > 8 µg/mL
- MIC [11]: 0.5 µg/mL (≈ 1.43 µM)
- IC50 ([12]; 1 h contact before infection, no washout, read-out: BEAS2B cells IC50 No washout): 0.054 µg/mL (≈ 0.155 µM)
- IC50 ([12]; 1 h contact then 24-h washout before infection, read-out: BEAS2B cells IC50 Washout): > 1 µg/mL
- activity after 1-h contact and 24-h washout ([12]; BEAS2B cells): ineffective
- IC50 [13]: 0.067 µg/mL and 190 nM
- MFC (A. fumigatus (NCPF2010) [14]; NCPF2010, read-out: XTT-MFC): > 32 µg/mL
- inhibition at 32 µg/mL (A. fumigatus (NCPF2010) [14]; NCPF2010, read-out: maximum inhibition of fungicidal activity): 69.2%
- MIC [15]: > 8 µg/mL
- MIC Range [16]: 0.06 to 4 µg/mL
- MIC50 ([16]; Aspergillus fumigatus): 0.5 µg/mL (≈ 1.43 µM)
- MIC90 ([16]; Aspergillus fumigatus): 1 µg/mL (≈ 2.86 µM)
- MIC ([16]; Aspergillus fumigatus, read-out: MIC Geometric mean): 0.42 µg/mL (≈ 1.2 µM)
- MIC ([16]; Aspergillus fumigatus, read-out: MIC Mode): 0.5 µg/mL (≈ 1.43 µM)
- MIC [17]: 0.016 µg/mL (≈ 0.0458 µM)
